Experimental data published in patent US9783513B2, “STAT3 inhibitors and their anticancer use” (Ohio State Innovation Foundation, priority 2012, dated 2017).
“Also recorded” adds a separate entry of the source.

Legend:
HUVEC spheroids = experiment: 3D in vitro angiogenesis (spheroid sprouting) assay; assay type: cell-based, human; details: 300 nM
Method: The Endothelial Tube Formation Assay (CBA200, Cell Biolabs Inc., San Diego, Calif., USA) was used in addition to the HUVEC proliferation assay. The ECM gel was thawed at 4° C. and mixed to homogeneity using cooled pipette tips. Cell culture plates (96-well) were bottom-coated with a thin layer of ECM gel (50 μl/well), which was left to polymerize at 37° C. for 60 min. HUVEC (2-3×10^4 cells) were stimulated with VEGF in 150 μl medium and added to each well on the solidified ECM gel. Culture medium was added to each well in the presence or absence of LY5. The plates were incubated at 37° C. for 12-18 hours and the endothelial tubes were quantified using a fluorescent microscope after staining with Calcein AM. Three microscope fields were selected at random and photographed. Tube forming ability was quantified by counting the total number of cell clusters and branches under a 4× objective and […] per well. The results are expressed as mean fold change of branching compared with the control groups. Each experiment was performed at least three times. The 3D in vitro angiogenesis assay was performed essentially as described by manufactures instructions (promo cell). […] The spheroids were photographed after 24 hours and sprout formation assessed as described.

STAT3 dimerization = target: T1, STAT3 dimerization (Homo sapiens, UniProt P40763); experiment: STAT3 dimerization in transfected HeLa cells; assay type: cell-based; details: flag- and HA-tagged STAT3
T1 construct: expressed in transfected cells; host or cells: HeLa

[1] = test system: 96 human protein or lipid kinases; experiment: Kinase screening (KINOMESCAN), panel of 96 kinases; assay type: binding
Method: The potential off-target activity of a representative compound was assessed in a screen against 96 protein and lipid kinases (see FIGS. 56 and 60). The test compound, LY-5, was assessed at 1000 and 5000 nM concentration using in vitro kinase assays. The assays were carried out using standard techniques known to one skilled in the art (KINOMESCAN™, San Diego, Calif.). The data in FIG. 60 show the % inhibition for the tested concentrations of LY-5 in the panel of kinases assessed. The interaction map provides a visualization of the relationship of these inhibition data from FIG. 60 to various kinase families.

[2] = test system: OSM induced STAT3 phosphorylation; experiment: Western blot, OSM induced STAT3 phosphorylation; assay type: cell-based, human
[3] = test system: VEGF induced vessels in Matrigel plugs; experiment: Vascularization of […] plugs in vivo; set-up: species or system mouse
Method: To further characterize anti-angiogenetic properties of LY5 in vivo, we performed murine […]™ plug experiments. PBS was used as a negative control, and VEGF (100 ng/mL) as a positive control. […]™ was injected subcutaneously into CB17SC scid−/− female mice, forming semi-solid plugs. Animals received treatment of LY5 (5 mg/kg) I.P. intraperitoneal (i.p.) injection immediately after the […]™ injection and daily for 7 days. On day 7, plugs were excised under anesthesia, fixed in PBS-buffered 10% formalin containing 0.25% glutaraldehyde, and were processed for H&E and Masson's Trichrome staining. Vascular identity of the infiltrating cells was established with CD34 immunostaining. The regions containing the most intense area of neovascularization (“hotspots”) were chosen for analysis. Eight hotspots were identified for each Matrigel […]™ or tumor section. The ImagePro Plus analysis system (Media Cybernetics Inc, Bethesda, Md.) was used to quantify the percentage of area occupied by the vessel-like structures in each field. The mean±SE from each group were compared. The negative control was obtained by tissue staining with secondary antibody only.

STAT5 = experiment: Western blot, STAT5 after OSM stimulation; assay type: cell-based, human; details: MCF-7; 1 and 2.5 μM; OSM 50 ng/mL
Method: RH30 cells were treated with DMSO, LY-5 (0.25-1 μM) and LY-3 (0.5-2.5 μM) prepared as a 20 mM stock solution in sterile DMSO at 60% to 80% confluence in the presence of 10% FBS for 24 hours. The sarcoma cell line EW8 was treated with DMSO and LY-5 (0.5-2.5 μM) prepared as a 20 mM stock solution in sterile DMSO at 60% to 80% confluence in the presence of 10% FBS for 24 hours. MCF-7 cells and DAOY cells were treated with DMSO, 25-50 ng/ml of IL-6, LY-5 (0.25-1 μM) or LY-3 (0.5-2.5 μM) prepared as a 20 mM stock solution in sterile DMSO, protein expressions of P-STAT3 (Tyr705) and STAT3 were tested. DAOY cells were treated with DMSO, 50 ng/ml of IFN-γ, LY-5 (1-5 μM) prepared as a 20 mM stock solution in sterile DMSO, protein expressions of P-STAT3 (Tyr705) and STAT3 were tested. MCF-7 cells were treated with DMSO, 50 ng/ml of OSM, LY-5 (1-2.5 μM) or LLL12 (1-2.5 μM) prepared as a 20 mM stock solution in sterile DMSO, protein expressions of P-STAT3 (Tyr705), P-STAT1, P-STAT5, P-ERK (T202/Y204), P-AKT, STAT3 and STAT1 were tested.
MCF-7 breast cancer cells were seeded in 10 cm plates and allowed to adhere overnight. The following day, the cells were serum-starved. The cells were then left untreated or were treated with LY-5 and LLL12 (1 μM and 2.5 μM) prepared as a 20 mM stock solution in sterile DMSO or DMSO. […] The cells were harvested after 30 minutes and analyzed by Western blot.

T1 sequence (P40763 whole entry): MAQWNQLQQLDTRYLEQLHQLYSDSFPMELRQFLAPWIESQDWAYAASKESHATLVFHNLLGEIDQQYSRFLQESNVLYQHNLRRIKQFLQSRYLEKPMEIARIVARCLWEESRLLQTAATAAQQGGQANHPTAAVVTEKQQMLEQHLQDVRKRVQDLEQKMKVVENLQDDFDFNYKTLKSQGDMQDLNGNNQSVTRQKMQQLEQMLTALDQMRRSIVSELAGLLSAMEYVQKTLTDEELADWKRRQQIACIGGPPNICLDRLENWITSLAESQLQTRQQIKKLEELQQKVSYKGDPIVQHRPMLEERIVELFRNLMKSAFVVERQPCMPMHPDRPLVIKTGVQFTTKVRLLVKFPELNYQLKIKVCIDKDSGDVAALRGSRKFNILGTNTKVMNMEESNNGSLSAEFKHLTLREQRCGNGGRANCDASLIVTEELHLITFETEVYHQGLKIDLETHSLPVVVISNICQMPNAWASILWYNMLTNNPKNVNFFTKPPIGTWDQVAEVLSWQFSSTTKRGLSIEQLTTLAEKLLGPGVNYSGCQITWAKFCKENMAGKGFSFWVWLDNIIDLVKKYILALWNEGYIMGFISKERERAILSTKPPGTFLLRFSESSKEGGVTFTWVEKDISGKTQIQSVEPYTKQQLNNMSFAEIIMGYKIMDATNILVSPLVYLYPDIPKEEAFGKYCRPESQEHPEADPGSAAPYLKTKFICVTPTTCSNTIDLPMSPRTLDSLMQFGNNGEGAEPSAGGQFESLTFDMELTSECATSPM

NS(=O)(=O)c1cccc2c1C(=O)C=C(Nc1cccnc1)C2=O [LY-5, 5,8-dioxo-6-(pyridin-3-ylamino)-5,8-dihydronaphthalene-1-sulfonamide]
VEGF induced sprouting from preformed HUVEC spheroids (HUVEC spheroids): reduce HUVEC vascular sprout length
VEGF induced sprouting from preformed HUVEC spheroids (HUVEC spheroids; listed as LY5): impaired angiogenic sprouting
STAT3 dimerization (STAT3 dimerization): inhibits
inhibitory binding to the active sites of 96 kinases ([1]; 1 μM drug concentration, FIG. 56): no apparent inhibitory binding
inhibition of the panel of kinases ([1]; 1000 and 5000 nM): did not significantly inhibit; also recorded: no apparent activity
OSM induced STAT3 phosphorylation ([2]; MCF-7, 1-2.5 μM, OSM 50 ng/mL): inhibit
OSM induced STAT3 phosphorylation at Y705 ([2]; SJSA, 0-2.5 μM, 3 h): inhibits
number of CD34 positive vessels in Matrigel plugs ([3]; 5 mg/kg daily, day 7): decrease in number of vessels
decrease of vessel formation in Matrigel plugs ([3]; 5 mg/kg dose level, VEGF plugs): 85%
inhibition of STAT5 (STAT5): exhibit inhibition
